According to patent publication US9890103B2, “Process for the production of (meth)acrylic acid and derivatives and polymers produced therefrom” (Lucite International UK Limited, priority 2011, dated 2018):

Columns and labels:
[1] = Extraction of acrylic and maleic acid into toluene/butanone mixtures; format: physicochemical; conditions: 0.1M aq solution, equal volume
Description: (§1) The following experimental conditions were used unless indicated otherwise:— • 0.1M Acids • 1:1 vol:vol aq:solvent • Room Temperature • 1 minutes agitation time; 5 min settling time • Solvent is toluene unless where stated • Analysis by HPLC
In order to increase the solubility of the AA in the organic layer a higher polarity is likely to be required. The extraction of a 0.1M aq AA solution was studied with an equal volume of a mixture between toluene and butanone.

[2] = Extraction of mono- and dibasic acids from 0.1M aqueous solution into toluene or MMA/toluene mixtures; format: physicochemical; conditions: for degree of extraction: equal volume, in %; for Fraction Transferred to Toluene: each acid 0.1M in water, equal volume of toluene
Description: as §1
Monobasic and dibasic acids likely to be present in aqueous solution following partial decomposition of mono and dicarboxylic acids expected to be found from decomposition of dibasic or tribasic acids were compared for their solubility in toluene.
Each acid, initially at 0.1M solution in water was separately tested for solubility in an equal volume of toluene.
Aqueous solutions were prepared of each of the dicarboxylic acids exemplified in comparative example 2. These were extracted with an equal volume of solvent mixtures of toluene and methyl methacrylate (MMA).
In order to compare the solubilities in the organic solvents in terms of partition coefficients each sample was converted to a partition coefficient based on the equation: [MAA]solv=K[MAA]^2aq

[3] = Solvent screen: transfer of methacrylic acid from aqueous solution into organic solvents; format: physicochemical; conditions: 0.1M MAA aq, 1:1 vol:vol, room temperature
Description: as §1
A series of solvents were tested to examine the extent of transfer of methacrylic acid from an aqueous solution using the above procedure.

[4] = Concentration dependence of MAA extraction into toluene; format: physicochemical; conditions: toluene/water, fitted to table 3 data
Description: as §1
A series of different concentrations of MAA in aqueous solution were extracted into toluene (1:1 by volume vs aqueous solution).
The fraction transferred increases with the concentration of MAA. The data from table 3 were plotted according to the equation: [MAA]tol=K[MAA]^2aq and the value K in the equation was evaluated as 14.6. The results are plotted in FIG. 1.

[5] = MAA extraction into 2-butanone/o-xylene 75:25; format: physicochemical; conditions: 2-butanone:o-xylene 75:25
Description: The efficiency of MAA extraction into a mixture of 2-butanone and o-xylene in the ratio 75:25 was studied.

[6] = MAA extraction into toluene with added NaOH and added di/tricarboxylic acids; format: physicochemical; conditions: for amount of MAA transferred into toluene: 0.1M MAA aq, equivalent volume toluene
Description: The following experimental conditions were used unless indicated otherwise:— • 0.1M Acids • 1:1 vol:vol aq:solvent • Room Temperature • 1 minutes agitation time; 5 min settling time • Solvent is toluene unless where stated • Analysis by HPLC […] The results are shown in the first two rows of table 5 […] Very similar results were obtained. […] The aqueous solution was extracted with an equal volume of toluene at room temperature.

[7] = 2-butanone:o-xylene 75:25; reported maximum; cited from earlier work
[8] = Fraction of MMA in MMA/Toluene solvent mixture 0
[9] = Fraction of MMA in MMA/Toluene solvent mixture 0.1
[10] = Fraction of MMA in MMA/Toluene solvent mixture 0.2
[11] = Fraction of MMA in MMA/Toluene solvent mixture 0.3
[12] = Fraction of MMA in MMA/Toluene solvent mixture 0.4
[13] = Fraction of MMA in MMA/Toluene solvent mixture 0.5
[14] = Fraction of MMA in MMA/Toluene solvent mixture 0.6
[15] = Fraction of MMA in MMA/Toluene solvent mixture 0.7
[16] = Fraction of MMA in MMA/Toluene solvent mixture 0.8
[17] = Fraction of MMA in MMA/Toluene solvent mixture 0.9
[18] = Fraction of MMA in MMA/Toluene solvent mixture 1

Structure (SMILES)	degree of extraction [2, 8]	degree of extraction [2, 9]	degree of extraction [2, 10]	degree of extraction [2, 11]	degree of extraction [2, 12]	degree of extraction [2, 13]	degree of extraction [2, 14]	degree of extraction [2, 15]	degree of extraction [2, 16]	degree of extraction [2, 17]	degree of extraction [2, 18]	Fraction Transferred to Toluene [2]	other results
C=CC(=O)O [Acrylic acid]	–	–	–	–	–	–	–	–	–	–	–	–	% extracted ([1]; 0 % Butanone in toluene): 5.01%; % extracted ([1]; 10 % Butanone in toluene): 14.57%; % extracted ([1]; 20 % Butanone in toluene): 25.26%; % extracted ([1]; 30 % Butanone in toluene): 35.45%; % extracted ([1]; 40 % Butanone in toluene): 44.14%; % extracted ([1]; 50 % Butanone in toluene): 53.47%; % extracted ([1]; 60 % Butanone in toluene): 57.31%; % extracted ([1]; 70 % Butanone in toluene): 63.39%; % extracted ([1]; 80 % Butanone in toluene): 67.47%; % extracted ([1]; 90 % Butanone in toluene): 70.04%; % extracted ([1]; 100 % Butanone): 65.56%
C/C=C/C(=O)O [CT, Crotonic Acid]	40.11	46.72	49.88	53.62	56.56	61.15	64.67	68.07	70.86	73.21	75.05	40.11%	–
CC(C)(O)C(=O)O [HIB, Hydroxyisobutyric Acid]	4.21	4.8	5.14	6.38	4.82	5.76	7.32	19.71	21.47	23.32	23.9	4.21%	–
C=C(CC(=O)O)C(=O)O [IC, Itaconic Acid]	0	0	0.29	0.81	1.69	2.89	4.34	6.56	9.57	13.1	17.58	0%	–
C=C(C)C(=O)O [MAA, Methacrylic Acid]	54.4	58.85	63.01	67.25	70.31	74.28	76.77	79.42	81.42	83.02	84.28	54.4%	Average % Transfer ([3]; solvent Benzene): 50.1%; Average % Transfer ([3]; solvent Cyclohexane): 26.9%; Average % Transfer ([3]; solvent Hexane): 27.6%; Average % Transfer ([3]; solvent MMA): 84.3%; Average % Transfer ([3]; solvent Mixed Xylenes): 45.3%; Average % Transfer ([3]; solvent Pentane): 28.3%; Average % Transfer ([3]; solvent Toluene): 48.2%; K in [MAA]tol=K[MAA]^2aq [4]: 14.6; MAA extracted into the organic phase [5]: roughly 80%; MAA extraction into toluene ([6]; 0.1M MAA + 0.05M NaOH + itaconic acid to 0.1M): 44.7%; amount of MAA transferred into toluene ([6]; after addition of 0.05M sodium hydroxide): 26%; amount of MAA transferred into toluene ([6]; before NaOH addition): 48%; distribution coefficient for MAA, K [7]: ~7.00
C/C(=C\C(=O)O)C(=O)O [MC, Mesaconic Acid]	0.64	1.72	4.5	8.26	13.02	20.56	27.82	38.06	47.19	56.33	63.45	0.64%	–
O=C(O)/C=C\C(=O)O [Maleic acid]	–	–	–	–	–	–	–	–	–	–	–	–	% extracted ([1]; 0 % Butanone in toluene): 0%; % extracted ([1]; 10 % Butanone in toluene): 0.32%; % extracted ([1]; 20 % Butanone in toluene): 1.46%; % extracted ([1]; 30 % Butanone in toluene): 3.41%; % extracted ([1]; 40 % Butanone in toluene): 5.19%; % extracted ([1]; 50 % Butanone in toluene): 10.62%; % extracted ([1]; 60 % Butanone in toluene): 10.77%; % extracted ([1]; 70 % Butanone in toluene): 15.01%; % extracted ([1]; 80 % Butanone in toluene): 19.88%; % extracted ([1]; 90 % Butanone in toluene): 27.09%; % extracted ([1]; 100 % Butanone): 34.32%
CC(=O)C(=O)O [PY, Pyruvic Acid]	0	0	0.3	0.7	1.17	2.07	3.01	4.17	5.57	8.05	10.71	0%	–
